Test system: Plasmodium falciparum
Assay: Plasmodium falciparum in vitro [3H]-hypoxanthine parasite growth inhibition assay
Format: cell-based
Settings: Erythrocyte, P. falciparum asexual blood stage parasites in human erythrocytes, [3H]-hypoxanthine uptake, read-out: Act Class (IC50 activity level)

| Structure (SMILES) | IC50 [nM] |
| --- | --- |
| CC1(Nc2ncc3nc(Nc4ccc(Cl)c(C(F)(F)F)c4)n(C4CCNCC4)c3n2)CCCC1 [Cpd 90, N8-(4-chloro-3-(trifluoromethyl)phenyl)-N2-(1-methylcyclopentyl)-9-(piperidin-4-yl)-9H-purine-2,8-diamine] | 100 to 200 |
| CC1(Nc2ncc3nc(Nc4cccc(OC(F)(F)F)c4)n(C4CCNCC4)c3n2)CCOCC1 [Cpd 55, N2-(4-methyltetrahydro-2H-pyran-4-yl)-9-(piperidin-4-yl)-N8-(3-(trifluoromethoxy)phenyl)-9H-purine-2,8-diamine] | 100 to 200 |
| CC(C)(C)Nc1ncc2nc(Nc3cc(Cl)cc(Cl)c3)n(C3CCN(CCN)CC3)c2n1 [Cpd 35, 9-(1-(2-aminoethyl)piperidin-4-yl)-N2-tert-butyl-N8-(3,5-dichlorophenyl)-9H-purine-2,8-diamine] | 200 to 500 |
| CC(C)(C)Nc1ncc2nc(Nc3ccc(C(F)(F)F)cc3)n(C3CCNCC3)c2n1 [Cpd 2, N2-tert-butyl-9-(piperidin-4-yl)-N8-(4-(trifluoromethyl)phenyl)-9H-purine-2,8-diamine] | 200 to 500 |
| FC(F)(F)c1cc(Cl)cc(Nc2nc3cnc(NC4CC4)nc3n2C2CCNCC2)c1 [Cpd 40, N8-(3-chloro-5-(trifluoromethyl)phenyl)-N2-cyclopropyl-9-(piperidin-4-yl)-9H-purine-2,8-diamine] | < 100 |
| CC(C)(C)Nc1ncc2nc(Nc3cc(F)cc(F)c3)n(C3CCNCC3)c2n1 [Cpd 28, N2-tert-butyl-N8-(3,5-difluorophenyl)-9-(piperidin-4-yl)-9H-purine-2,8-diamine] | 100 to 200 |
| CC(C)(C)Nc1ncc2nc(Nc3cccc(C(F)(F)F)c3)n(C3CCC4CNCC4C3)c2n1 (stereo not drawn) [Cpd 78, N2-tert-butyl-9-(octahydro-1H-isoindol-5-yl)-N8-(3-(trifluoromethyl)phenyl)-9H-purine-2,8-diamine] | 500 to 1200 |
| CC(C)Nc1ncc2nc(Nc3ccc(C(F)(F)F)c(Cl)c3)n(C3CCNCC3)c2n1 [Cpd 91, N8-(3-chloro-4-(trifluoromethyl)phenyl)-N2-isopropyl-9-(piperidin-4-yl)-9H-purine-2,8-diamine] | 200 to 500 |
| CC(C)(C)Nc1ncc2nc(Nc3cc(F)cc(Cl)c3)n(C3CCNCC3)c2n1 [Cpd 26, N2-tert-butyl-N8-(3-chloro-5-fluorophenyl)-9-(piperidin-4-yl)-9H-purine-2,8-diamine] | < 100 |
| CCN1CCC(n2c(Nc3ccc(Cl)c(Cl)c3)nc3cnc(NC(C)(C)C)nc32)CC1 [Cpd 37, N2-tert-butyl-N8-(3,4-dichlorophenyl)-9-(1-ethylpiperidin-4-yl)-9H-purine-2,8-diamine] | < 100 |
| CC(N)CCn1c(Nc2cc(Cl)cc(C(F)(F)F)c2)nc2cnc(NC(C)(C)C)nc21 (stereo not drawn) [Cpd 112, 9-(3-aminobutyl)-N2-tert-butyl-N8-(3-chloro-5-(trifluoromethyl)phenyl)-9H-purine-2,8-diamine] | 200 to 500 |
| Clc1cc(Cl)cc(Nc2nc3cnc(NC4CC4)nc3n2C2CCNCC2)c1 [Cpd 34, N2-cyclopropyl-N8-(3,5-dichlorophenyl)-9-(piperidin-4-yl)-9H-purine-2,8-diamine] | 200 to 500 |
| FC(F)(F)c1cc(Nc2nc3cnc(NC4CCCC4)nc3n2C2CCNCC2)ccc1Cl [Cpd 87, N8-(4-chloro-3-(trifluoromethyl)phenyl)-N2-cyclopentyl-9-(piperidin-4-yl)-9H-purine-2,8-diamine] | 100 to 200 |
| CC(C)(C)Nc1ncc2nc(Nc3cccc(Cl)c3F)n(C3CCNCC3)c2n1 [Cpd 47, N2-tert-butyl-N8-(3-chloro-2-fluorophenyl)-9-(piperidin-4-yl)-9H-purine-2,8-diamine] | 500 to 1200 |
| CC1(Nc2ncc3nc(Nc4cccc(Cl)c4)n(CCN4CCCCC4)c3n2)CCOCC1 [Cpd 16, N8-(3-chlorophenyl)-N2-(4-methyltetrahydro-2H-pyran-4-yl)-9-(2-(piperidin-1-yl)ethyl)-9H-purine-2,8-diamine] | 500 to 1200 |
| CC1(Nc2ncc3nc(Nc4cc(Cl)cc(Cl)c4)n(C4CCNCC4)c3n2)CC1 [Cpd 41, N8-(3,5-dichlorophenyl)-N2-(1-methylcyclopropyl)-9-(piperidin-4-yl)-9H-purine-2,8-diamine] | < 100 |
| CC(C)(C)Nc1ncc2nc(Nc3ccnc(C(F)(F)F)c3)n(C3CCNCC3)c2n1 [Cpd 31, N2-tert-butyl-9-(piperidin-4-yl)-N8-(2-(trifluoromethyl)pyridin-4-yl)-9H-purine-2,8-diamine] | 200 to 500 |
| CC1(Nc2ncc3nc(Nc4cccc(C(F)(F)F)c4)n(C4CCNCC4)c3n2)CCOCC1 [Cpd 25, N2-(4-methyltetrahydro-2H-pyran-4-yl)-9-(piperidin-4-yl)-N8-(3-(trifluoromethyl)phenyl)-9H-purine-2,8-diamine] | 500 to 1200 |
| CC(C)(C)Nc1ncc2nc(Nc3cc(C(F)(F)F)cc(C(F)(F)F)c3)n(C3CCNCC3)c2n1 [Cpd 49, N8-(3,5-bis(trifluoromethyl)phenyl)-N2-tert-butyl-9-(piperidin-4-yl)-9H-purine-2,8-diamine] | < 100 |
| CC1(Nc2ncc3nc(Nc4cccc(C(F)(F)F)c4)n(C4CCNCC4)c3n2)CCCC1 [Cpd 59, N2-(1-methylcyclopentyl)-9-(piperidin-4-yl)-N8-(3-(trifluoromethyl)phenyl)-9H-purine-2,8-diamine] | < 100 |
| CN1CCC(n2c(Nc3ccc(Cl)c(Cl)c3)nc3cnc(NC(C)(C)C)nc32)CC1 [Cpd 36, N2-tert-butyl-N8-(3,4-dichlorophenyl)-9-(1-methylpiperidin-4-yl)-9H-purine-2,8-diamine] | < 100 |
| CC(C)(C)Nc1ncc2nc(Nc3ccc(Cl)c(Cl)c3)n(C3CCNCC3)c2n1 [Cpd 6, N2-tert-butyl-N8-(3,4-dichlorophenyl)-9-(piperidin-4-yl)-9H-purine-2,8-diamine] | < 100 |
| CC1(Nc2ncc3nc(Nc4ccc(C(F)(F)F)cc4)n(C4CCNCC4)c3n2)CCOCC1 [Cpd 15, N2-(4-methyltetrahydro-2H-pyran-4-yl)-9-(piperidin-4-yl)-N8-(4-(trifluoromethyl)phenyl)-9H-purine-2,8-diamine] | 100 to 200 |
| CC(C)(C)Nc1ncc2nc(Nc3ccc(OC(F)(F)F)cc3)n(C3CCNCC3)c2n1 [Cpd 21, N2-tert-butyl-9-(piperidin-4-yl)-N8-(4-(trifluoromethoxy)phenyl)-9H-purine-2,8-diamine] | 100 to 200 |
| CC(C)(C)Nc1ncc2nc(Nc3cc(Cl)cc(OC(F)(F)F)c3)n(C3CCNCC3)c2n1 [Cpd 48, N2-tert-butyl-N8-(3-chloro-5-(trifluoromethoxy)phenyl)-9-(piperidin-4-yl)-9H-purine-2,8-diamine] | < 100 |
| CC1(Nc2ncc3nc(Nc4cc(Cl)cc(C(F)(F)F)c4)n(C4CCNCC4)c3n2)CC1 [Cpd 42, N8-(3-chloro-5-(trifluoromethyl)phenyl)-N2-(1-methylcyclopropyl)-9-(piperidin-4-yl)-9H-purine-2,8-diamine] | < 100 |
| CC(C)(C)Nc1ncc2nc(Nc3cc(Cl)cc(C(F)(F)F)c3)n(C3CCN(CCN)C3)c2n1 (stereo not drawn) [Cpd 60, 9-(1-(2-aminoethyl)pyrrolidin-3-yl)-N2-tert-butyl-N8-(3-chloro-5-(trifluoromethyl)phenyl)-9H-purine-2,8-diamine] | 200 to 500 |
| CC(C)(C)Nc1ncc2nc(Nc3cccc(C(F)(F)F)c3)n(CCC3CCCN3)c2n1 (stereo not drawn) [Cpd 19, N2-tert-butyl-9-(2-(pyrrolidin-2-yl)ethyl)-N8-(3-(trifluoromethyl)phenyl)-9H-purine-2,8-diamine] | 200 to 500 |
| CC(C)(C)Nc1ncc2nc(Nc3cccc(C#N)c3)n(C3CCNCC3)c2n1 [Cpd 50, 3-(2-(tert-butylamino)-9-(piperidin-4-yl)-9H-purin-8-ylamino)benzonitrile] | 200 to 500 |
| CC1(Nc2ncc3nc(Nc4cc(F)cc(Cl)c4)n(C4CCNCC4)c3n2)CCOCC1 [Cpd 56, N8-(3-chloro-5-fluorophenyl)-N2-(4-methyltetrahydro-2H-pyran-4-yl)-9-(piperidin-4-yl)-9H-purine-2,8-diamine] | < 100 |
